Data as given in paper PMC11956013, “Structure–Activity Relationships and Evaluation of 2-(Heteroaryl-cycloalkyl)-1H-indoles as Tauopathy Positron Emission Tomography Radiotracers” (Journal of Medicinal Chemistry, 2025).

Experiments:
human 5-HT2B = biological target: T1, human 5-HT2B (Homo sapiens, UniProt P41595); test: Eurofins CNS SafetyScreen panel: 5-HT2B (vs ± DOI); assay type: binding
T1 construct: purchased Eurofins (contract screening, CNS SafetyScreen panel)

human recombinant MAO-B = biological target: T2, human recombinant MAO-B (Homo sapiens, UniProt P27338); test: Eurofins IC50 determination at human recombinant MAO-B; assay type: binding
T2 construct: purchased Eurofins (contract assay)

NMDA = test: Eurofins panel: NMDA (antagonist radioligand); assay type: binding; settings: compound concentration 1.0E-05 M
PCP = test: Eurofins panel: PCP (antagonist radioligand); assay type: binding; settings: compound concentration 1.0E-05 M
PDE4D2 (h) = biological target: T3, PDE4D2 (h) (Homo sapiens, UniProt Q08499); test: Eurofins panel: PDE4D2 (h); assay type: biochemical; settings: compound concentration 1.0E-05 M
T3 construct: purchased Eurofins (CNS SafetyScreen panel, contract assay)

AMPA = test: Eurofins panel: AMPA (agonist radioligand); assay type: binding; settings: 1.0E-05 M; AMPA (agonist radioligand)
kainate = kainate (agonist radioligand), Eurofins assay 65; settings: Specific binding; 1.0E-05 M
[1] = biological target: T4, human monoamine oxidase-B (MAO-B) (Homo sapiens, UniProt P27338)
5-HT1A (h) = 5-HT1A (h) (Homo sapiens, UniProt P08908); settings: 1.0E-05 M; 5-HT1A (h) (agonist radioligand)
[2] = biological target: N neuronal alpha4beta2 (h) (Homo sapiens, UniProt P17787+P43681); settings: compound concentration 1.0E-05 M
NK1 (h) = NK1 (h) (Homo sapiens, UniProt P25103); settings: compound concentration 1.0E-05 M
5-HT3 (h) = 5-HT3 (h) (Homo sapiens, UniProt P46098); settings: 1.0E-05 M; 5-HT3 (h) (antagonist radioligand)
5-HT7 (h) = 5-HT7 (h) (Homo sapiens, UniProt P34969); settings: 1.0E-05 M; 5-HT7 (h) (agonist radioligand)
A1 (h) = A1 (h) (Homo sapiens, UniProt P30542); settings: 1.0E-05 M; A1 (h) (antagonist radioligand)
OX1 (h) = OX1 (h) (Homo sapiens, UniProt O43613); settings: compound concentration 1.0E-05 M
A3 (h) = A3 (h) (Homo sapiens, UniProt P0DMS8); settings: 1.0E-05 M; A3 (h) (agonist radioligand)
SKCa channel = settings: compound concentration 1.0E-05 M
TNF-alpha (h) = settings: compound concentration 1.0E-05 M
alpha2C (h) = alpha2C (h) (Homo sapiens, UniProt P18825); settings: 1.0E-05 M; alpha2C (h) (antagonist radioligand)
JNK1 (h) = JNK1 (h) (Homo sapiens, UniProt P45983); settings: Enzymatic activity; 1.0E-05 M
[3] = biological target: carbonic anhydrase II (h) (Homo sapiens, UniProt P00918); settings: 1.0E-05 M
[4] = biological target: T4, human monoamine oxidase-B (MAO-B); test: biochemical
CYP3A = CYP3A (Homo sapiens, UniProt P08684); test: in vitro; settings: human liver microsomes, probe midazolam
CB1 (h) = CB1 (h) (Homo sapiens, UniProt P21554); test: biochemical
CCK1 (CCKA) (h) = CCK1 (CCKA) (h) (Homo sapiens, UniProt P32238); test: biochemical
D4.4 (h) = D4.4 (h) (Homo sapiens, UniProt P21917); test: biochemical
ETA (h) = ETA (h) (Homo sapiens, UniProt P25101); test: biochemical
H1 (h) = H1 (h) (Homo sapiens, UniProt P35367); test: biochemical
H3 (h) = H3 (h) (Homo sapiens, UniProt Q9Y5N1); test: biochemical
M3 (h) = M3 (h) (Homo sapiens, UniProt P20309); test: biochemical
mGluR5 (h) = mGluR5 (h) (Homo sapiens, UniProt P41594); test: Eurofins panel: mGluR5 (h) (agonist radioligand); settings: 1.0E-05 M; mGluR5 (h) (agonist radioligand)
M4 (h) = M4 (h) (Homo sapiens, UniProt P08173); test: M4 (h) (antagonist radioligand), Eurofins assay 96
5-HT1B (h) = 5-HT1B (h) (Homo sapiens, UniProt P28222); test: Eurofins panel: 5-HT1B (h) (antagonist radioligand); settings: 1.0E-05 M
5-HT transporter (h) = 5-HT transporter (h) (Homo sapiens, UniProt P31645); test: Eurofins panel: 5-HT transporter (h) (antagonist radioligand); settings: 1.0E-05 M
[5] = biological target: MAO-A, human, monoamine oxydase A (Homo sapiens, UniProt P21397); test: MAO-A, human, monoamine oxydase A, MAO, Enzymatic Assay, Cerep, assay 5108
[6] = biological target: GABAA1 (h) (alpha1,beta2,gamma2) (Homo sapiens, UniProt P14867+P47870); test: GABAA1 (h) (alpha1,beta2,gamma2) (agonist radioligand), Eurofins assay 3051

T1 sequence (P41595 whole entry): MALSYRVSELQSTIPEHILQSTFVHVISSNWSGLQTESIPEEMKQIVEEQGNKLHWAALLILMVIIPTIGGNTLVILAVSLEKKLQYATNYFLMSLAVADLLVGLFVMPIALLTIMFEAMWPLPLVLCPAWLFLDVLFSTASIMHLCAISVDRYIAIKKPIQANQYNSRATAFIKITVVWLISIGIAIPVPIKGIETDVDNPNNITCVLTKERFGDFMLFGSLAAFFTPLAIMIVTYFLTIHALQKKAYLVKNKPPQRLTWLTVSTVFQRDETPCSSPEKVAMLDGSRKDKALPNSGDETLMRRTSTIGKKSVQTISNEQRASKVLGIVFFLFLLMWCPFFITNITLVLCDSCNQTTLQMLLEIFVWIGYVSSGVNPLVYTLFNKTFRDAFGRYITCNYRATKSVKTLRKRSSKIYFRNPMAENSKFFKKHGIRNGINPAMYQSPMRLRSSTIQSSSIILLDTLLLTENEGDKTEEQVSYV
T4 sequence (P27338 whole entry): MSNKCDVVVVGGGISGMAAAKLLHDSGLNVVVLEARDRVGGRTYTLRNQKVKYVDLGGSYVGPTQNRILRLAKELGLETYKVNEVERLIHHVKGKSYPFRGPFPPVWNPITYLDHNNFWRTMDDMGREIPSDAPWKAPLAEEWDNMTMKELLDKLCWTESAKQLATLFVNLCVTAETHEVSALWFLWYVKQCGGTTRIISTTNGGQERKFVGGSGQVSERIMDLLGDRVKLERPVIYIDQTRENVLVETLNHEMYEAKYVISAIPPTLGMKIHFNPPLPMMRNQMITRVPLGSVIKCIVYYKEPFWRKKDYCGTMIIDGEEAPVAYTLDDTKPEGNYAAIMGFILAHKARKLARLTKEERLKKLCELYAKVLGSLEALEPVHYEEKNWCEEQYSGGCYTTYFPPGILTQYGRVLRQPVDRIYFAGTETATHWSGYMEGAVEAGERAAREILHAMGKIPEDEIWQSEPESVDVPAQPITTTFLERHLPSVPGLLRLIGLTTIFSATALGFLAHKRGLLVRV
Sequence of N neuronal alpha4beta2 (h) (P43681 29-627): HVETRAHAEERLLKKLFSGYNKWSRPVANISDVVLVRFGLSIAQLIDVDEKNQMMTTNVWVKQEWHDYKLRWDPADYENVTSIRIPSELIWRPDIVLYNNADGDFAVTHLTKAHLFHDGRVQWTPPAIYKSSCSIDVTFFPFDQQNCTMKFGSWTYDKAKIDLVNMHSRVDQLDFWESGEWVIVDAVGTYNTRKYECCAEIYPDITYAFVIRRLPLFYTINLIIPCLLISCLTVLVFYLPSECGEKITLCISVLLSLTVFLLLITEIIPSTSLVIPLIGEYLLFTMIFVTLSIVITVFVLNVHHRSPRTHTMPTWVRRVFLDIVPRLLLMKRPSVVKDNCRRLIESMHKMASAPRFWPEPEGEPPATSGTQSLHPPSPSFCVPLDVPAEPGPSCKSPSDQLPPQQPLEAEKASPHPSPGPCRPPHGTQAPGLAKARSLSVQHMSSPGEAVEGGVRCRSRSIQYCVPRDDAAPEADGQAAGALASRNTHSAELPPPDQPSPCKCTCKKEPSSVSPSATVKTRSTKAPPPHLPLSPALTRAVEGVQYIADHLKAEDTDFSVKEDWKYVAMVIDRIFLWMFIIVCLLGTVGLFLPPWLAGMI
Sequence of N neuronal alpha4beta2 (h) (P17787 26-502): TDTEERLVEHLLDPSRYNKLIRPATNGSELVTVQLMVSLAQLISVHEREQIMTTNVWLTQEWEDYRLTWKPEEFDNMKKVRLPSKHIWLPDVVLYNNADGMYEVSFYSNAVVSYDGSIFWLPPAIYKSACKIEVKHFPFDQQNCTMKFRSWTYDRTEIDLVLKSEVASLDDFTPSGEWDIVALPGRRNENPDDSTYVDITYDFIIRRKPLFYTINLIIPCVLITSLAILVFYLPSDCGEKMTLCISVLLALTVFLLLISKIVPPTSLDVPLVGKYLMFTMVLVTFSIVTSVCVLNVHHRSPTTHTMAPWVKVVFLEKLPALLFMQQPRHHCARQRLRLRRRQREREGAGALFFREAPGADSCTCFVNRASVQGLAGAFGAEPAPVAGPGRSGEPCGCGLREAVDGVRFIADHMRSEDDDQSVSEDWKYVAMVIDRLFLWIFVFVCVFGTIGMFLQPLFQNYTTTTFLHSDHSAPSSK
Sequence of 5-HT1B (h) (P28222 whole entry): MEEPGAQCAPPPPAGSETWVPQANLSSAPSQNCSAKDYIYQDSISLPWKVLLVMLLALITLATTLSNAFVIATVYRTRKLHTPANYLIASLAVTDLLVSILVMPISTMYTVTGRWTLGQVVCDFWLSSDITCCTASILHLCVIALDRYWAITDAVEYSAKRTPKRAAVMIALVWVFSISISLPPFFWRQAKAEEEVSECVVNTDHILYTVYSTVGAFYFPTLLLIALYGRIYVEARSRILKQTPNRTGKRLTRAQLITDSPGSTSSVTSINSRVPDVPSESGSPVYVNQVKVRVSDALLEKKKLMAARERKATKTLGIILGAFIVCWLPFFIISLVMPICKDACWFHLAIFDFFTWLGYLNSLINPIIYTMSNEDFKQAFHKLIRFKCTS
Sequence of A1 (h) (P30542 whole entry): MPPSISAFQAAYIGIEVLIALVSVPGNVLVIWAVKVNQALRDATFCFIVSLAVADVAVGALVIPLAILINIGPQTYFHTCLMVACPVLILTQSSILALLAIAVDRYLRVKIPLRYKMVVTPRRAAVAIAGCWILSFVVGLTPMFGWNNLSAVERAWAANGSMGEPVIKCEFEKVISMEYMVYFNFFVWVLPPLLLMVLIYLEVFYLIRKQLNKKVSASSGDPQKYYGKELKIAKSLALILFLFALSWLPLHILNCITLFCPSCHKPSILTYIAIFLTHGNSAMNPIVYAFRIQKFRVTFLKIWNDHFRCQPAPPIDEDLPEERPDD
Sequence of 5-HT3 (h) (P46098 24-478): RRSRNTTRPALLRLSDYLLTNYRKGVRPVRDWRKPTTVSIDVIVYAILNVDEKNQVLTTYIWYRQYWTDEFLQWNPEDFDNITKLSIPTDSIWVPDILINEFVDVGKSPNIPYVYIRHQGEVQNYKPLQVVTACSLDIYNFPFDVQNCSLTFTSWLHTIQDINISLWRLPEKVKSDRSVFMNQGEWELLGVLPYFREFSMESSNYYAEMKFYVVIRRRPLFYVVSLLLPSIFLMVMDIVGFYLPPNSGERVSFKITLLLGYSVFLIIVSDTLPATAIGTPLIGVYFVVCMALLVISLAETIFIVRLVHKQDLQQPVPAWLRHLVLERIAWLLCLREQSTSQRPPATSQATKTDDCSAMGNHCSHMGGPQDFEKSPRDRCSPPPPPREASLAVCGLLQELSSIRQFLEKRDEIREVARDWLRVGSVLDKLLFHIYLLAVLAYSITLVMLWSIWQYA
Sequence of OX1 (h) (O43613 whole entry): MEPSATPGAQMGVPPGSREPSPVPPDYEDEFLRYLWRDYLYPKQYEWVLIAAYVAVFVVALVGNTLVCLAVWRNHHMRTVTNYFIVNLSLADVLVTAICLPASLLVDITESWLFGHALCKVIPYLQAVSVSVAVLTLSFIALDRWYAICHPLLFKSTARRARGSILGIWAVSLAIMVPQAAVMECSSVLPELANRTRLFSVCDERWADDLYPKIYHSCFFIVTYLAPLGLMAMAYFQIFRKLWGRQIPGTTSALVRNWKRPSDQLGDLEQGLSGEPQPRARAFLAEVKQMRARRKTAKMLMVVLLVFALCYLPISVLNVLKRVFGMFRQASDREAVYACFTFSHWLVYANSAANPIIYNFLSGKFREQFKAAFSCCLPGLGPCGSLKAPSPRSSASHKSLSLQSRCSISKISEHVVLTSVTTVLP
Sequence of D4.4 (h) (P21917 whole entry): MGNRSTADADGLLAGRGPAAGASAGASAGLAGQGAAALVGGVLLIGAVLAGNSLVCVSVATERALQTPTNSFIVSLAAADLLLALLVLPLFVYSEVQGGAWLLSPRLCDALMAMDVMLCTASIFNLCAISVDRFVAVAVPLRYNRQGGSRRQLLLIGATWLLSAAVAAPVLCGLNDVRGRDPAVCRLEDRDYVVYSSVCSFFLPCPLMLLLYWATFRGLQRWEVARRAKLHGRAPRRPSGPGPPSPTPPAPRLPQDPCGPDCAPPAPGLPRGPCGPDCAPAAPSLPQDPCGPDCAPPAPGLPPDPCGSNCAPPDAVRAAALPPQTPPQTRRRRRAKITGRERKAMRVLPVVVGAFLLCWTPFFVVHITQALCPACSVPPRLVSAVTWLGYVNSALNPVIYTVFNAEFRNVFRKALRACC
Sequence of H3 (h) (Q9Y5N1 whole entry): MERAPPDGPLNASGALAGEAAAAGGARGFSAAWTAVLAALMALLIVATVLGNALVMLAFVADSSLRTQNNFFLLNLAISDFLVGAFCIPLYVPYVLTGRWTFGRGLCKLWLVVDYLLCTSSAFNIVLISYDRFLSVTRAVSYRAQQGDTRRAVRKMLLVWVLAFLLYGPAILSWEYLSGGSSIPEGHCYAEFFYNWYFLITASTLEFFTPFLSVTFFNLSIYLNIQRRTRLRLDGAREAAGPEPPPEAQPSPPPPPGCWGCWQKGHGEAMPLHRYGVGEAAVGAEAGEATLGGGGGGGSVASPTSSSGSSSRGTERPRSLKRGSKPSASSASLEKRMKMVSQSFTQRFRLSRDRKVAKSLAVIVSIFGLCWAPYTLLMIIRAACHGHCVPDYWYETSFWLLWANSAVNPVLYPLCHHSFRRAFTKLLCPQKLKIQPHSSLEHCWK
T2 sequence (P27338 whole entry): as the sequence (P27338 whole entry) above
Sequence of A3 (h) (P0DMS8 whole entry): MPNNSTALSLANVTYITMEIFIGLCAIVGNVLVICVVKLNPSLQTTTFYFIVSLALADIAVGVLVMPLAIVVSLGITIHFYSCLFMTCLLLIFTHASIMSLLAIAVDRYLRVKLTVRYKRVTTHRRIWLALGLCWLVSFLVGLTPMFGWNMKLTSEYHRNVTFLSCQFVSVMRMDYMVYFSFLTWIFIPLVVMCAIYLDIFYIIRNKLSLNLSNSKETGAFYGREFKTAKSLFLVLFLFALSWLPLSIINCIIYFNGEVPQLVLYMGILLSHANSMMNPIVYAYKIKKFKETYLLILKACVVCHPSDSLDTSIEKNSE

## Fc1nc(N2CCOCC2)ccc1-c1cc2ccccc2[nH]1 [Compound 75, 4-(6-Fluoro-5-(1H-indol-2-yl)pyridin-2-yl)morpholine]
Human 5-HT2B; 1.0E-05 M, 5-HT2B (h) (agonist radioligand)
  % Inhibition, Specific binding: 44.5993%
Human 5-HT2B; 10-μM concentration
  inhibition at human 5-HT2B (vs ± DOI): 44.6%
Human recombinant MAO-B
  IC50: 3 µM
NMDA
  % Inhibition, Specific binding: -1.90E-01%
PCP
  % Inhibition, Specific binding: -3.84E+00%
PDE4D2 (h)
  % Inhibition, Enzymatic activity: -7.60E+00%
AMPA
  % Inhibition, Specific binding: 4.317%
kainate
  % Inhibition: 7.0556%
[1]
  inhibition at human MAO-B (vs deprenyl): 61%
5-HT1A (h)
  % Inhibition, Specific binding: 11.4159%
[2]
  % Inhibition, Specific binding: -8.72E+00%
NK1 (h)
  % Inhibition, Specific binding: 21.8946%
5-HT3 (h)
  % Inhibition, Specific binding: 0.4312%
5-HT7 (h)
  % Inhibition, Specific binding: -1.16E+00%
A1 (h)
  % Inhibition, Specific binding: -7.64E+00%
OX1 (h)
  % Inhibition, Specific binding: 6.092%
A3 (h)
  % Inhibition, Specific binding: 5.821%
SKCa channel
  % Inhibition, Specific binding: 0.9001%
TNF-alpha (h)
  % Inhibition, Specific binding: 0.1083%
alpha2C (h)
  % Inhibition, Specific binding: 4.876%
JNK1 (h)
  % Inhibition: -3.56E-01%
[3]
  % Inhibition, Enzymatic activity: -2.68E+01%
[4]
  inhibition at 10 µM: 61%
CYP3A
  inhibition at 10 µM: -2.45%
CB1 (h)
  inhibition at 10 µM: -0.0362%
CCK1 (CCKA) (h)
  inhibition at 10 µM: -78.7%
D4.4 (h)
  inhibition at 10 µM: 20.4%
ETA (h)
  inhibition at 10 µM: 4.29%
H1 (h)
  inhibition at 10 µM: -3.1%
H3 (h)
  inhibition at 10 µM: -4.9%
M3 (h)
  inhibition at 10 µM: -12.5%
mGluR5 (h)
  % Inhibition, Specific binding: -1.20E+01%
M4 (h)
  inhibition at 10 µM: -20.6%
5-HT1B (h)
  % Inhibition, Specific binding: -1.91E+01%
5-HT transporter (h)
  % Inhibition, Specific binding: -9.53E+00%
[5]
  inhibition at 10 µM: 3.62%
[6]
  inhibition at 10 µM: 7.7%
